One assay concerns the target T1, JAK2 (Homo sapiens, UniProt O60674).
T1 construct: endogenous in cells; host or cells: Mixed Molt4/Ramos lysate (1:2)
In words: Kinobeads assay, JAK2. Format: binding. To be noted: mixed Molt4/Ramos cell lysate, dot blot detection. Here is the method: (§1) The compounds of the present invention as described in the previous examples were tested in a Kinobeads™ assay as described for ZAP-70 (WO-A 2007/137867). Briefly, test compounds (at various concentrations) and the affinity matrix with the immobilized aminopyrido-pyrimidine ligand 24 were added to cell lysate aliquots and allowed to bind to the proteins in the lysate sample. After the incubation time the beads with captured proteins were separated from the lysate. Bound proteins were then eluted and the presence of JAK2 and JAK3 was detected and quantified using specific antibodies in a dot blot procedure and the Odyssey infrared detection system. Dose response curves for individual kinases were generated and IC50 values calculated. Kinobeads™ assays for ZAP-70 (WO-A 2007/137867) and for kinase selectivity profiling (WO-A 2006/134056) have been previously described.
(§2) The affinity matrix was washed two times with 15 mL of 1×DP buffer containing 0.2% NP40 (IGEPAL® CA-630, Sigma, #13021) and then resuspended in 1×DP buffer containing 0.2% NP40 (3% beads slurry).
(§3) 5×DP buffer: 250 mM Tris-HCl pH 7.4, 25% Glycerol, 7.5 mM MgCl2, 750 mM NaCl, 5 mM Na3VO4; filter the 5×DP buffer through a 0.22 μm filter and store in aliquots at −80° C. The 5×DP buffer is diluted with H2O to 1×DP buffer containing 1 mM DTT and 25 mM NaF.
(§4) Stock solutions of test compounds were prepared in DMSO. In a 96 well plate 30 μL solution of diluted test compounds at 5 mM in DMSO were prepared. Starting with this solution a 1:3 dilution series (9 steps) was prepared. For control experiments (no test compound) a buffer containing 2% DMSO was used.
(§5) Molt4 cells (ATCC catalogue number CRL-1582) and Ramos cells (ATCC catalogue number CRL-1596) were grown in 1 L Spinner flasks (Integra Biosciences, #182101) in suspension in RPMI 1640 medium (Invitrogen, #21875-034) supplemented with 10% Fetal Bovine Serum (Invitrogen) at a density between 0.15×10^6 and 1.2×10^6 cells/mL. Cells were harvested by centrifugation, washed once with 1×PBS buffer (Invitrogen, #14190-094) and cell pellets were frozen in liquid nitrogen and subsequently stored at −80° C. Cells were homogenized in a Potter S homogenizer in lysis buffer: 50 mM Tris-HCl, 0.8% NP40, 5% glycerol, 150 mM NaCl, 1.5 mM MgCl2, 25 mM NaF, 1 mM sodium vanadate, 1 mM DTT, pH 7.5. One complete EDTA-free tablet (protease inhibitor cocktail, Roche Diagnostics, 1873580) per 25 mL buffer was added. The material was dounced 10 times using a mechanized POTTER S, transferred to 50 mL falcon tubes, incubated for 30 minutes on ice and spun down for 10 minutes at 20,000 g at 4° C. (10,000 rpm in Sorvall SLA600, precooled). The supernatant was transferred to an ultracentrifuge (UZ)-polycarbonate tube (Beckmann, 355654) and spun for 1 hour at 100.000 g at 4° C. (33.500 rpm in Ti50.2, precooled). The supernatant was transferred again to a fresh 50 mL falcon tube, the protein concentration was determined by a Bradford assay (BioRad) and samples containing 50 mg of protein per aliquot were prepared. The samples were immediately used for experiments or frozen in liquid nitrogen and stored frozen at −80° C.
(§6) Cell lysate (approximately 50 mg protein per plate) was thawed in a water bath at room temperature and then stored on ice. To the thawed cell lysate 1×DP 0.8% NP40 buffer containing protease inhibitors (1 tablet for 25 mL buffer; EDTA-free protease inhibitor cocktail; Roche Diagnostics 1873580) was added in order to reach a final protein concentration of 10 mg/mL total protein. The diluted cell lysate was stored on ice. Mixed Molt4/Ramos lysate was prepared by combining one volume of Molt4 lysate and two volumes of Ramos lysate (ratio 1:2).
(§7) To a 96 well filter plate (Multiscreen HTS, BV Filter Plates, Millipore #MSBVN1250) were added per well: 100 μL affinity matrix (3% beads slurry), […], of compound solution, and 50 μL of diluted lysate. […]

The next assay concerns the target T2, JAK3 (Homo sapiens, UniProt P52333).
T2 construct: endogenous in cells; host or cells: Mixed Molt4/Ramos lysate (1:2)
T2 sequence (P52333 1-1124): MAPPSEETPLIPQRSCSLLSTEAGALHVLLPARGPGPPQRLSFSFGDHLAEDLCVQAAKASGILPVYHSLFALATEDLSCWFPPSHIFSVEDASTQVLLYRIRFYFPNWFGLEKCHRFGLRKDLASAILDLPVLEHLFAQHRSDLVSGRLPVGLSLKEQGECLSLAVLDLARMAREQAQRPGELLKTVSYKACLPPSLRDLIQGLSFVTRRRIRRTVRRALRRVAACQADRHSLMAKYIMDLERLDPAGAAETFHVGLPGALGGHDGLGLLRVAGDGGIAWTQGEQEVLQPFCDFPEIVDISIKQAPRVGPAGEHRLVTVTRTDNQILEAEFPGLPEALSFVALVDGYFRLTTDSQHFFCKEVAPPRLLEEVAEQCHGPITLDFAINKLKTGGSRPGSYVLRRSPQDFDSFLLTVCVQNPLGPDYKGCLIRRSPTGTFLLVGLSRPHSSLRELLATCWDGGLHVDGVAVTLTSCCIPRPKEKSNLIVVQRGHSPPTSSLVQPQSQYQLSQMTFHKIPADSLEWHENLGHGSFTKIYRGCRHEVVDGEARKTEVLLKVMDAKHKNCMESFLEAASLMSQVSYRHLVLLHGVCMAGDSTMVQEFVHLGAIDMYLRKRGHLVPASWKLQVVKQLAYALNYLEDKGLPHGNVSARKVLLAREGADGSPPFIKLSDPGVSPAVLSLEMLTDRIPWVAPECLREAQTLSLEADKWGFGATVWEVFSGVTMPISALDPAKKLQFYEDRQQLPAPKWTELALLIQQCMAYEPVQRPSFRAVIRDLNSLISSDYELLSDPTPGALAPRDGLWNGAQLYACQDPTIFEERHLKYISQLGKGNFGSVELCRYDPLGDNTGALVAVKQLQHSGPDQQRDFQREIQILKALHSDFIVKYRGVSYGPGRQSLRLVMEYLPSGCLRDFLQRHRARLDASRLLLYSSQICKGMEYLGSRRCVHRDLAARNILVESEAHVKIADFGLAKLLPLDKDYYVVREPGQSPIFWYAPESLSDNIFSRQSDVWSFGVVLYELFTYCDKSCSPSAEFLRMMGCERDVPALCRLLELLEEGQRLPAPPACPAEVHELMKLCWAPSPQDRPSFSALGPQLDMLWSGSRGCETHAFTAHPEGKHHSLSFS
Description: Kinobeads assay, JAK3. It counts as binding. To be noted: mixed Molt4/Ramos cell lysate, dot blot detection. Here is the method: as §1, §2, §3, §4, §5, §6, §7

T1 sequence (O60674 whole entry): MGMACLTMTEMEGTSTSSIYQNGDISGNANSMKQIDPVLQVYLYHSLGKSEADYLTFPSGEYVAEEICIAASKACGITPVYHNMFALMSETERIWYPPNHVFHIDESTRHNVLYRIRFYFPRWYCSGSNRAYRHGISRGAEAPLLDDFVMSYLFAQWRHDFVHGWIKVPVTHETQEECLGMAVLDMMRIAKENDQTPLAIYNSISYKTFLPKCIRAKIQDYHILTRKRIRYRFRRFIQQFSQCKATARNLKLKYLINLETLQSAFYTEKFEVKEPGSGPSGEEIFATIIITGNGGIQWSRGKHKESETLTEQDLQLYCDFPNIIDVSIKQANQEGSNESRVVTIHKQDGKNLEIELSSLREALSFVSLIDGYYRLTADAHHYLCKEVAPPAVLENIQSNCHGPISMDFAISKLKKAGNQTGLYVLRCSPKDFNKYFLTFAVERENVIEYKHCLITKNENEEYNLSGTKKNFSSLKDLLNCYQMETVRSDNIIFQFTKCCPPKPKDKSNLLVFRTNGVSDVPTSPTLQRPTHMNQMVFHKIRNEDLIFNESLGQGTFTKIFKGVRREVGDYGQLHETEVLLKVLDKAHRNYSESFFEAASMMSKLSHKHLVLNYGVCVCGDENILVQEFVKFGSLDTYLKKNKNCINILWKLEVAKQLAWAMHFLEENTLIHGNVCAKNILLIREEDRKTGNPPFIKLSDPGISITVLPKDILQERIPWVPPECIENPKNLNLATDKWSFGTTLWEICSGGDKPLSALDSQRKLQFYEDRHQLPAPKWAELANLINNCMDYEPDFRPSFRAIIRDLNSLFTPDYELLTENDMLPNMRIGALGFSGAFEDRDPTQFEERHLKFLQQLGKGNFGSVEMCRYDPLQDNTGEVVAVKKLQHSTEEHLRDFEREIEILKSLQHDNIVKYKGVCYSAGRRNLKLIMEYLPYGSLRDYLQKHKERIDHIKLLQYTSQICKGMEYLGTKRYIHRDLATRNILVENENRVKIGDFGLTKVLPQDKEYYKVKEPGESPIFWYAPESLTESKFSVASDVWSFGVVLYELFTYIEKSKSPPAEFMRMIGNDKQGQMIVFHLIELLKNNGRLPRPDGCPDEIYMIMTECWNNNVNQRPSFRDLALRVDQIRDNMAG

The term IC50 denotes the concentration that gives 50% inhibition. A lower IC50 goes with higher potency. Regarding `OCCn1cc(Nc2ncc3cnn(Cc4ccccc4F)c3n2)cn1` [Example 34, 2-(4-(1-(2-Fluorobenzyl)-1H-pyrazolo[3,4-d]pyrimidin-6-ylamino)-1H-pyrazol-1-yl)ethanol], the IC50 at JAK2 was 100 to 1000 nM; at JAK3, less than 100 nM.

Consider `Cn1cc(Nc2ncc3cnn(-c4ccc(S(N)(=O)=O)cc4)c3n2)cn1` [Example 35, 4-(6-(1-Methyl-1H-pyrazol-4-ylamino)-1H-pyrazolo[3,4-d]pyrimidin-1-yl)benzenesulfonamide], for which the 50% inhibitory concentration (IC50) on JAK2 was 1000 to 10000 nM; at JAK3, less than 100 nM.

As to `COc1nn(CC(F)F)cc1Nc1ncc2cnn(Cc3ccccc3C(N)=O)c2n1` [Example 36, 2-((6-(1-(2,2-Difluoroethyl)-3-methoxy-1H-pyrazol-4-ylamino)-1H-pyrazolo[3,4-d]pyrimidin-1-yl)methyl)benzamide], the 50% inhibitory concentration (IC50) was no less than 10000 nM against JAK2 and 100 to 1000 nM against JAK3.

As to `Cc1c(Nc2ncc3cnn(Cc4ccccc4C#N)c3n2)cnn1C` [Example 37, 2-((6-(1,5-Dimethyl-1H-pyrazol-4-ylamino)-1H-pyrazolo[3,4-d]pyrimidin-1-yl)methyl)benzonitrile], the 50% inhibitory concentration (IC50) against JAK2 was no less than 10000 nM; on JAK3, 100 to 1000 nM.

As for `COc1nn(CC(F)(F)F)cc1Nc1ncc2cnn(Cc3ccccc3C#N)c2n1` [Example 38], the IC50 on JAK2 was no less than 10000 nM; at JAK3 it was 100 to 1000 nM.

In the case of `N#Cc1ccccc1Cn1ncc2cnc(Nc3cnn(CC(F)F)c3)nc21` [Example 39, 2-((6-(1-(2,2-Difluoroethyl)-1H-pyrazol-4-ylamino)-1H-pyrazolo[3,4-d]pyrimidin-1-yl)methyl)benzonitrile], the IC50 on JAK2 was 1000 to 10000 nM; against JAK3 it was less than 100 nM.

For `CNS(=O)(=O)c1ccc(-n2ncc3cnc(Nc4cnn(C)c4)nc32)cc1` [Example 40, N-Methyl-4-(6-(1-methyl-1H-pyrazol-4-ylamino)-1H-pyrazolo[3,4-d]pyrimidin-1-yl)benzenesulfonamide], the half-inhibitory concentration (IC50) against JAK2 fell in the range of 1000 to 10000 nM; against JAK3, 100 to 1000 nM.

Take `Cn1cc(Nc2ncc3cnn(Cc4ccccc4C(=O)O)c3n2)cn1` [Example 41, 2-((6-(1-Methyl-1H-pyrazol-4-ylamino)-1H-pyrazolo[3,4-d]pyrimidin-1-yl)methyl)benzoic acid]: the IC50 was 1000 to 10000 nM at JAK2 and 100 to 1000 nM against JAK3.

Regarding `NC(=O)c1ccccc1Cn1ncc2cnc(Nc3cnn(CC(F)F)c3)nc21` [Example 42, 2-((6-(1-(2,2-Difluoroethyl)-1H-pyrazol-4-ylamino)-1H-pyrazolo[3,4-d]pyrimidin-1-yl)methyl)benzamide], the IC50 is 1000 to 10000 nM at JAK2 and less than 100 nM against JAK3.

For the molecule `Cc1nn(CC(F)F)cc1Nc1ncc2cnn(Cc3ccccc3C(N)=O)c2n1` [Example 43, 2-((6-(1-(2,2-Difluoroethyl)-3-methyl-1H-pyrazol-4-ylamino)-1H-pyrazolo[3,4-d]pyrimidin-1-yl)methyl)benzamide], the IC50 on JAK2 is 1000 to 10000 nM; against JAK3 it was 100 to 1000 nM.

Consider `COc1nn(CCO)cc1Nc1ncc2cnn(Cc3ccccc3C#N)c2n1` [Example 44, 2-((6-(1-(2-Hydroxyethyl)-3-methoxy-1H-pyrazol-4-ylamino)-1H-pyrazolo[3,4-d]pyrimidin-1-yl)methyl)benzonitrile], for which the IC50 at JAK2 was 1000 to 10000 nM; against JAK3 it was less than 100 nM.

Turning to `Cn1cc(Nc2ncc3cnn(Cc4cccnc4F)c3n2)cn1` [Example 45, 1-((2-Fluoropyridin-3-yl)methyl)-N-(1-methyl-1H-pyrazol-4-yl)-1H-pyrazolo[3,4-d]pyrimidin-6-amine], the IC50 at JAK2 was 1000 to 10000 nM; on JAK3 it was less than 100 nM.

For `Cn1cc(Nc2ncc3cnn(Cc4ccncc4F)c3n2)cn1` [Example 46, 1-((3-Fluoropyridin-4-yl)methyl)-N-(1-methyl-1H-pyrazol-4-yl)-1H-pyrazolo[3,4-d]pyrimidin-6-amine], the concentration for half-maximal inhibition (IC50) at JAK2 was 1000 to 10000 nM; against JAK3, 100 to 1000 nM.

In the case of `Cn1cc(Nc2ncc3cnn(Cc4ccc(F)cc4F)c3n2)cn1` [Example 47, 1-(2,4-Difluorobenzyl)-N-(1-methyl-1H-pyrazol-4-yl)-1H-pyrazolo[3,4-d]pyrimidin-6-amine], the 50% inhibitory concentration (IC50) against JAK2 was in the range of 1000 to 10000 nM; at JAK3, 100 to 1000 nM.

As to `Cn1cc(Nc2ncc3cnn(CCc4ccccc4)c3n2)cn1` [Example 48, N-(1-Methyl-1H-pyrazol-4-yl)-1-phenethyl-1H-pyrazolo[3,4-d]pyrimidin-6-amine], the results for the IC50 on JAK2 and against JAK3 were 1000 to 10000 nM and 100 to 1000 nM, respectively.

As to `COc1nn(CCO)cc1Nc1ncc2cnn(Cc3ccccc3F)c2n1` [Example 49, 2-(4-(1-(2-Fluorobenzyl)-1H-pyrazolo[3,4-d]pyrimidin-6-ylamino)-3-methoxy-1H-pyrazol-1-yl)ethanol], the IC50 against JAK2 was 1000 to 10000 nM; on JAK3, less than 100 nM.

Take `COc1nn(CCO)cc1Nc1ncc2cnn(Cc3cccc(F)c3F)c2n1` [Example 50, 2-(4-(1-(2,3-Difluorobenzyl)-1H-pyrazolo[3,4-d]pyrimidin-6-ylamino)-3-methoxy-1H-pyrazol-1-yl)ethanol]: the results for the half-inhibitory concentration (IC50) on JAK2 and against JAK3 were 1000 to 10000 nM and less than 100 nM, respectively.

Take `COc1nn(CCO)cc1Nc1ncc2cnn(Cc3cc(F)ccc3F)c2n1` [Example 51, 2-(4-(1-(2,5-Difluorobenzyl)-1H-pyrazolo[3,4-d]pyrimidin-6-ylamino)-3-methoxy-1H-pyrazol-1-yl)ethanol]: the IC50 was 1000 to 10000 nM on JAK2 and less than 100 nM on JAK3.

On to `Cn1cc(Nc2ncc3cnn(Cc4cc(F)ccc4C#N)c3n2)cn1` [Example 52, 4-Fluoro-2-((6-(1-methyl-1H-pyrazol-4-ylamino)-1H-pyrazolo[3,4-d]pyrimidin-1-yl)methyl)benzonitrile], for which the IC50 at JAK2 and on JAK3 was less than 100 nM each time.

The values are drawn from patent US9242987B2, “Heterocyclyl pyrazolopyrimidine analogues as JAK inhibitors” (Cellzome Limited, priority 2009, dated 2016).
